Marks after values point to notes of the source that are not given here. Blank lines part the entries; values can stand above or below the compound they belong to.
Legend:
carrageenan foot edema = experiment: Carrageenan foot edema method using SD rat; assay type: in vivo; conditions: 30 mg/kg intraperitoneally, 1 hr before carrageenan; foot volume change at 4 hr
Method: The extracts from Cavalia gladiata, Biota orientalis, Coptis chinensis and their mixture prepared in Example 1 were intraperitoneally administered, respectively, in an amount of 30 mg/kg. After 1 hr, 0.5 ml of 0.1% carrageenan solution was injected into the sole of a back foot to induce inflammation. The volume change of rat foot at the time of injection of carrageenan and 4-hr after administration was measured and the Inhibitory rate was calculated according to the Formula 3. Inhibitory rate (%)=[(1−ΔVtreated group)/ΔVcontrol group)]×100 (ΔV: volume change of foot) Formula 3

[1] = target: T1, Testosterone 5α-Reductase (Rattus norvegicus, UniProt P24008); experiment: Inhibitory effect on testosterone 5α-reductase activity (rat liver enzyme, (3H) testosterone, TLC); assay type: biochemical, Sprague-Dawley rat
T1 construct: from tissue; host or cells: liver of 8-week-old female Sprague-Dawley rat (homogenate, sonicated and centrifuged)
T1 sequence (P24008 1-259): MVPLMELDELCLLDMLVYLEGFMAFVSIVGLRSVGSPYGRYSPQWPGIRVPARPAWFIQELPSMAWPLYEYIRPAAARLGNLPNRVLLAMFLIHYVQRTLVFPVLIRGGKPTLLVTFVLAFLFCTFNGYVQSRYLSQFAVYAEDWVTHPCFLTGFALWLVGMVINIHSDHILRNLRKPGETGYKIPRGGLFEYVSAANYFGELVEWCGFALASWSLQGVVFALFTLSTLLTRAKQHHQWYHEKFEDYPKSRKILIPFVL
Method: Testosterone 5α-Reductase, used to examine the inhibitory effect of the extract obtained from oriental medicines against testosterone 5α-reductase activity, was prepared at a temperature of below 4° C. The white female Sprague-Dawley rat aged at 8 weeks was anesthetized by inhalation of diethylether and sacrificed by the disjunction of cervicals, followed by liver ablation. The extracted liver was washed three times with PBS (phosphate buffered saline) and 3 volumes of ice-cold buffer (50 mM sodium phosphate, pH 6.8, 0.25 M sucrose, 1 mM dithiothreitol) were added, followed by pulverizing with a cell homogenizer (Polytron Homogenizer), obtaining homogenized suspension. […] The protein quantification of the protein suspension obtained thus was performed according to Bradford method and its accurate value was determined with ELISA reader.
For evaluating the inhibitory effect on the activity of 5α-Reductase, to 50 μl of the reaction solution, 10 μl of ethanol solution of inhibitor or tested sample (70% ethanol solution containing extract from oriental medicine) were added and the protein suspension was added to the volume of 100 μl of the reaction solution. […] The area exposed was measured with densitometer and the inhibitory rate against testosterone 5α-Reductase was calculated as shown in the below formula 1. […]

comedo of rabbit ear [2] = experiment: Alleviatory effect on comedo using ear of white rabbit, observation with naked eye; assay type: in vivo, New Zealand white male rabbits
Description: (§1) Test system—This test has been generally adopted for evaluation of treatment. New Zealand white male rabbits aged at 4-month and weighed 2-3 kg were purchased and mitigated for 1 week, of which only the healthy ones determined with naked eye were selected.
(§2) Test materials—For test groups, the powderized extracts (0.1% (w/v)) from Cavalia gladiata, Biota orientalis, Coptis chinensis and their mixture dissolved in 70% ethanol solution were used, respectively, 1.0% azelaic acid dissolved in 70% ethanol solution was used as a positive control and 70% ethanol solution per se was used as negative control.
(§3) Classification of test systems—Isopropyl myriatate (Sigma) was daily applied to both ears of rabbit for 2 weeks for inducing comedo. Rabbits observed with naked eye to show typical comedo were selected and classified to groups each of which was comprised of 6 rabbits in consideration of comedo severity.
(§4) Administration method of test materials—Test groups and a positive control to the right ear and a negative control to the left ear of rabbit were administered once daily for 2 weeks in the amount of 0.5 ml and spread with a swab. After 2 weeks, both ears were evaluated.
The standards for determination with naked eye were classified to 7 grades, 0, 0.5, 1.0, 1.5, 2.0, 2.5 and 3.0. The area of comedo was evaluated. The period for treatment of comedo was 2-week and the aggravation and alleviation of comedo were determined.
• 0: no difference compared to control • […]: symptoms between 0 and 1 • 1: showing congestion, bleeding of capillary tube, slight cornification and enlargement of hair follicle • 1.5: symptoms between 1 and 2 • 2: medium severity of cornification and enlargement of hair follicle • 2.5: symptoms between 2 and 3 • 3: excessive severity of cornification and enlargement of hair follicle, showing typical comedo

comedo of rabbit ear [3] = experiment: Alleviatory effect on comedo using ear of white rabbit, observation with image analysis; assay type: in vivo, New Zealand white male rabbits
Description: as §1, §2, §3, §4
After the observation with naked eye, each test group was euthanized with sodium pentobarbital and its both ears were cut out, after which their tissues at basement were cleaved in a size of about 2.5×1.5 cm and immersed in warm water (50° C.) for 3 min. The epiderms from the tissues were detached, placed with inner side upward on slide glass, fixed and dried at room temperature.

Propionibacterium acnes = experiment: Antimicrobial activity against acne pathogen (agar medium, anaerobic culture, colony count); assay type: cell-based; parameters: key: −: inhibition of growth; ±: pseudo-positive; +: positive
Method: The examination on antimicrobial activity of three extracts (Cavalia gladiata, Biota orientalis and Coptis chinensis) was performed in such a manner that an acne pathogen (Propionibacterium acnes) that was cultured in liquid medium was treated with a predetermined concentration of extract powderized by freeze drying and then cultured in an anaerobic incubator, followed by measuring a minimum inhibitory concentration (MIC) against an acne pathogen (Propionibacterium acnes). The overall procedure is as follows:
The acne pathogen (Propionibacterium acnes) was cultured at 37° C. for 3 days in reinforced clostridial medium and then continued to subculture until showing significant activity.
First, in a liquid culture method, 10 ml of reinforced clostridial medium were introduced to screw cap tube and sterilized for 20 min at 121° C. After sterilization, 0.5 ml of liquid paraffin sterilized separately was added dropwise on the liquid medium to protect the contact with oxygen. After cooling the medium, the microbe was inoculated into the medium and cultured at 37° C. for above 72 hr.
Second, in a solid culture method, 10 ml of the solid medium prepared by adding 0.1% agar to reinforced clostridial medium was introduced to a screw cap tube and sterilized at 121° C. for 20 min. After cooling the medium, the microbe was inoculated into the medium by use of inoculating platinum loop and stab-cultured for 72 hr at 37° C.
Third, in a plate culture method, the agar medium prepared and sterilized as a solid culture method was poured to a plate and cooled. After cooling and solidifying completely, the plate was placed in an anaerobic jar, 10 ml of water were introduced to complex gas (CO2 10.5%, H2 9.6%, N2 79.9%) and the lid was kept covered, followed by culturing at 37° C. for 72 hr.
1 ml of the medium containing Propionibacterium acnes subjected to a sufficient subculture was taken and inoculated into a medium containing 9 ml of reinforced clostridial medium, thereby obtaining 10-fold diluted culture medium. The same procedure was repeated to obtain between 10^−1 and […] diluted culture media. Each of the homogeneous solutions containing Cavalia gladiata, Biota orientalis, Coptis chinensis and at least two combinations thereof was well dissolved in 10 ml of 70% ethanol to obtain 2-fold diluted solution. The solution was filtered for removing bacteria through 0.2 μm membrane filter. […] 1 ml of the diluted medium (medium of Propionibacterium acnes subject to subculture diluted to 10^−1-10^−5) was dispensed in a petri dish and each agar medium having certain concentration was dispensed, followed by mixing and keeping it to stand for solidifying the agar medium. After solidification, the medium was placed in an anaerobic jar that in turn was equipped with gas-pak. Following culturing at 37° C. for 3 days, the number of colonies formed were counted and compared to that of a control group, and the inhibitory rate was calculated based on the results.

skin of a hairless mouse = experiment: First screening for promoting keratolysis (silver acetate blackened skin, closed patch); assay type: in vivo; parameters: key to Discoloration (keratolysis effect): ++: significant discoloration; +: discoloration; ±: slight discoloration; −: no change; conditions: for Appearance of Exfoliation: hairless mouse, closed patch about 24 hr; for Discoloration (keratolysis effect): positive control 2 wt % (pH 4)
Method: All skin cells help to maintain skin homeostasis through suitable metabolic processes by controlling the rate of their proliferation and exfoliation. Therefore, the reproduction rate of skin could be indirectly examined by observing the exfoliation rate of stratum corneum that can be generally measured by evaluating the level of skin discoloration associated with keratolysis. In evaluating the efficacy of extracts, the first screening for promoting keratolysis was performed using hairless mouse. Each extract sample was prepared by dissolving the dried powder extract prepared in Example 1 in 70% ethanol and the positive controls including glycolic acid or lactic acid were prepared as described above. The experiments were carried out as follows: The skin of a hairless mouse was washed with 10% SDS for 30 min and then allowed its skin to dry for experiment. 0.4 ml of aqueous silver acetate liquid was covered with a hill top chamber and closed patch was performed for 30 min, followed by infiltrating with a photo-developing solution to blacken a portion of patch with silver acetate. The closed patch was further performed with each extract sample on the blackened portion and removed after about 24 hr. The coloring index before application of extract and discoloring index at 24 hr after removal were measured by means of calorimeter (The higher the discoloring index, the higher is the keratolysis effect)

mouse ear edema = experiment: Balb.c ear edema test; assay type: in vivo, Balb.c mouse; conditions: 0.3 mg/ear topically at 15 min and 6 hr after induction; 24 hr
Method: To examine anti-inflammatory effect of the extracts, irritation-inducing substances, 5.0% benzalkonium chloride, 2.5% coroton oil and 3000 iu/g retinoic acid (negative control) were dissolved in 70% ethanol solution and its 0.3 mg/ear was topically applied to mouse ear (6 mice per group) in order to induce edema. At 15 min and 6 hr after induction of edema, respectively, each of the extract and controls (0.3 mg/ear) was topically applied to mouse ear. After 24 hr of application of irritation-inducing substances, the applied portion of the mouse was cut off with a punch and its weight was weighted. The edema extent was evaluated based on the mean value from the measurements with micrometer.
Inhibitory rate (%)=[(A−B)/A]×100 Formula 4
A: mean value of ear thickness of control group (ear thickness after treatment of negative control−ear thickness with no treatment)
B: ear thickness of sample group (ear thickness after treatment of sample−ear thickness with no treatment)

[4] = extracts 0.1% (w/v), azelaic acid 1.0%, 2 weeks

SMILES: CC(=O)Oc1ccccc1C(=O)O [Aspirin]
Inhibitory rate (%) of foot edema (carrageenan foot edema): 35.2 ± 6%

Inhibitory rate against 5α-reductase (%) ([1]; Conc. 0.1 %): 19.8%
Inhibitory rate against 5α-reductase (%) ([1]; Conc. 1.0 %): 100.0%
SMILES: O=C(O)CCCCCCCC(=O)O [Azelaic acid]
Inhibitory rate (%), naked eye comedo grade (comedo of rabbit ear [2]; [4]): 28.5%
After administration (right ear), naked eye comedo grade (comedo of rabbit ear [2]; grades 0-3, extracts 0.1% (w/v), azelaic acid 1.0%, 0.5 ml once daily for 2 weeks): 1.13 ± 0.14
Before administration (left ear), naked eye comedo grade (comedo of rabbit ear [2]; grades 0-3, left ear): 1.58 ± 0.12
Inhibitory rate (%), area of comedo/number (comedo of rabbit ear [3]; [4]): 40.0%
After administration (right ear) Area of comedo/number (cm^2) (comedo of rabbit ear [3]; image analysis, extracts 0.1% (w/v), azelaic acid 1.0%, once daily for 2 weeks): 0.18 ± 0.02 cm^2
Before administration (left ear) Area of comedo/number (cm^2) (comedo of rabbit ear [3]; image analysis, left ear): 0.30 ± 0.02 cm^2
comedo decreasing ratio (area/count ratio) (comedo of rabbit ear [3]; text restating Table 11): 40.0%

MIC to P. acnes (growth at concentration of extract) (Propionibacterium acnes; Concentration of extract 0.005 %): +
MIC to P. acnes (growth at concentration of extract) (Propionibacterium acnes; Concentration of extract 0.01 %): +
MIC to P. acnes (growth at concentration of extract) (Propionibacterium acnes; Concentration of extract 0.03 %): +
MIC to P. acnes (growth at concentration of extract) (Propionibacterium acnes; Concentration of extract 0.05 %): +***
MIC to P. acnes (growth at concentration of extract) (Propionibacterium acnes; Concentration of extract 0.10 %): ±**
MIC to P. acnes (growth at concentration of extract) (Propionibacterium acnes; Concentration of extract 0.50 %): −
SMILES: O=C(OOC(=O)c1ccccc1)c1ccccc1 [Benzoylperoxide]

SMILES: O=C(O)CO [Glycolic acid]
Appearance of Exfoliation (skin of a hairless mouse): Heterogeneous
Discoloration (keratolysis effect) (skin of a hairless mouse): 2 wt % (pH 4) ++

SMILES: CC1(C)[C@@H](O[C@H]2O[C@H](C(=O)O)[C@@H](O)[C@H](O)[C@H]2O[C@@H]2O[C@H](C(=O)O)[C@@H](O)[C@H](O)[C@H]2O)CC[C@]2(C)[C@H]3C(=O)C=C4[C@@H]5C[C@@](C)(C(=O)O)CC[C@]5(C)CC[C@@]4(C)[C@]3(C)CC[C@@H]12 [Glycyrrhizinic acid]
Inhibitory rate on ear thickness (%) (mouse ear edema): 42.7%
Inhibitory rate on ear weight (%) (mouse ear edema): 38.4%

SMILES: COc1ccc2c(c1)c(CC(=O)O)c(C)n2C(=O)c1ccc(Cl)cc1 [Indomethacin]
Inhibitory rate on ear thickness (%) (mouse ear edema): 52.0%
Inhibitory rate on ear weight (%) (mouse ear edema): 45.6%

SMILES: CC(O)C(=O)O (stereo not drawn) [Lactic acid]
Appearance of Exfoliation (skin of a hairless mouse): Heterogeneous
Discoloration (keratolysis effect) (skin of a hairless mouse): 2 wt % (pH 4) ++

Reference: patent US7695741B2, “Topical formulation for prevention and treatment of acne” (SK Chemicals Co., Ltd., priority 2002, dated 2010)
